Laboratory results: EP1183044B1, “ADJUVANT COMBINATIONS FOR IMMUNIZATION AND VACCINES” (priority 1999, dated 2000)

Test system: IFN-γ
Assay type: in vivo, C57BL/6 mice
Conditions: 72 h supernatant of blood cell cultures one week after last booster; ESAT-6 10 µg/dose, three vaccinations

Q: `CCCCCCCCCCCCCCCCCC[N+](C)(C)CCCCCCCCCCCCCCCCCC.[Br-]` [DDA, dimethyl dioctadecyl ammonium bromide] was tested. Which “ESAT-6 specific recall response, IFN-γ, Expt.I” value did it give?
A: Its value is less than 50 pg/mL.
